Common to all, as to assay type: cell-based
The test system of test [1] is Staphylococcus epidermidis (ATCC 12228). As to the kind of experiment: MIC broth microdilution (CLSI), Luria Broth. As to the method: (§1) Antibiotic Susceptibility Tests (MIC Assay Protocol). The minimum inhibitory concentration (MIC) for each compound described herein was determined by the broth microdilution method as recommended by the Clinical and Laboratory Standards Institute (CLSI) (Clinical and Laboratory Standards Institute. 2009. Methods for dilution antimicrobial susceptibility tests for bacteria that grow aerobically; approved standard, eighth edition (M7-A8)). In a 96-well plate, eleven two-fold serial dilutions of each compound were made in a final volume of 100 μL Luria Broth (one column served as a blank; see the MIC assay described herein). Each well was inoculated with 10^5 bacterial cells at the initial time of incubation, prepared from a fresh log phase culture (OD600 of 0.5). […] The concentration range tested for each compound during this study was 0.10 to 100 μM. DMSO served as the vehicle and negative control in each microdilution MIC assay. DMSO was serially diluted at the same concentration as the compounds with a top concentration of 1% v/v. Bacterial strains used: Staphylococcus aureus (ATCC 25923), Staphylococcus epidermidis (ATCC 12228) and Pseudomonas aeruginosa (PAO1). Kanamycin was used as a positive control against Staphylococcus aureus and Staphylococcus epidermidis.
A general note: Dilution methods test growth across graded concentrations, often in twofold steps.

Test [2] deals with Pseudomonas aeruginosa (PAO1). As to the kind of experiment: MIC broth microdilution (CLSI), Luria Broth. As to the method: as §1
Test [3] concerns Staphylococcus aureus (ATCC 25923). As to the kind of experiment: MIC broth microdilution (CLSI), Luria Broth. The conditions noted are these: Staphylococcus aureus. The method, then: as §1
Test [4] relates to Staphylococcus aureus (ATCC 25923) biofilm. As to the kind of experiment: Biofilm inhibition, crystal violet staining. Details: MIC/IC50 Biofilm: unit not given here. The conditions noted are these: S. aureus ATCC 25923; for Phenotype: planktonic growth vs biofilm formation; for IC50: Staphylococcus aureus, ATCC25923, single replicate screen, read-out: Biofilm Inhibition IC50; for MIC/IC50 Biofilm: ratio of MIC to IC50 of biofilm inhibition. The method, then: Biofilm Inhibition Protocol for S. aureus (ATCC 25923). A serial two-fold dilution of 2× bromophenazine small molecule concentration was made in 100 μL tryptic soy broth (TSB) medium with 0.5% glucose were delivered into 0.1% gelatin (Millipore) coated 96-well tissue culture plates. […] To each well, 100 μL of TSB with 0.5% glucose containing 2×10^6 CFU/mL Staphylococcus aureus cells, prepared from fresh culture (OD600 of 0.8), was added. The plates were incubated at 37° C. for 24 hours. The wells were gently rinsed by submerging the entire plates in a tub of cold, running tap water. The wells were then fixed with 200 μL methanol for 15 minutes. After the plates were air dried, the biofilms were stained with 100 μL of 1% crystal violet for 10 minutes. The plates were again rinsed with running water. After drying in air, quantitative assessment of biofilm formation was obtained by extracting the crystal violet associated with the remaining biofilm with 100 μL per well of the following bleaching solution (methanol:glacial acetic acid:water (v/v/v)=4:1:5). This bleaching solution dissolved the bound crystal violet and produced a violet-colored solution in each well. The intensity of coloration was determined by measuring the absorbance at 540 nm.

Test [5] concerns Acinetobacter baumannii (ATCC 19606). As to the kind of experiment: Planktonic growth (OD600) in biofilm inhibition assay. Conditions: for inhibition of growth at 100 µM: Acinetobacter baumannii, ATCC19606, 24 h, A. baumannii ATCC 19606, * = no growth inhibition at 200 μM, read-out: % Growth Inhibition at 100 μM. The method, then: Each well was inoculated with ˜7×10^6 colony forming units per milliliter (corresponding to an OD600 of 0.01 prepared directly from an overnight culture). A lid was placed on the 96-well plate which was wrapped in suran wrap, placed in a humidifying chamber and incubated under static conditions at 37° C. for 24 hours. Following incubation, the media and planktonic bacteria were then removed from 96-well plates and the wells were then washed with water. The bacterial biofilms within the microtiter wells were stained with 200 μL of an aqueous 0.1% crystal violet solution that was allowed to stand for 10-20 minutes. The crystal violet stain was then removed, the wells were rinsed with water and dried. The crystal violet stain that remained on the inside of the wells (i.e., stained bacterial biofilm) on the inside of the wells was solubilized by the addition of 200 μL ethanol and absorbance was read at OD540 using a spectrophotometer. […] Single data points for all compounds and DMSO controls were tested in two replicate rows in 96-well plates and corresponding absorbance readings were averaged for the quantification of planktonic growth and biofilm formation. Reported percent biofilm inhibition was determined by the comparison of compound treated wells (the average of the two replicate wells) versus vehicle control wells without compound following background subtraction (i.e., an empty, untreated well) and reported from 2 to 4 independent overnight cultures. DMSO was serially diluted at the same concentration as test compounds with a top concentration of 1% v/v.
(§2) The bromophenazines were also evaluated against the Gram-negative bacterium Acinetobacter baumannii in order to identify biofilm modulating small molecules against this emerging pathogen. Acinetobacter baumannii is notorious for its ability to persist as bacterial biofilms on hospital surfaces, giving rise to many multidrug-resistant nosocomial infections. Clinical isolates of A. baumannii have been identified that are resistant to every class of antibiotic clinically used. The bromophenazines were evaluated against Acinetobacter baumannii ATCC 19606 in biofilm inhibition assays. Bromophenazines were allowed to incubate in 96-well plates with Acinetobacter baumannii (˜7×10^6 CFUmL^−1 by adjusting an overnight culture to an OD600˜0.01) for 24 hours at 37° C. using Mueller-Hinton broth followed by spectrophometer readings of each plate to evaluate planktonic growth (OD600) and biofilm formation (OD540 after crystal violet stain of biofilms inside microtiter wells). […] This biofilm inhibition with activation of planktonic growth activity was dose-dependent with bromophenazine 17a (see FIG. 20).

The test system of test [6] is Acinetobacter baumannii (ATCC 19606) biofilm. As to the kind of experiment: Biofilm inhibition, Mueller-Hinton broth, crystal violet. Conditions: A. baumannii ATCC 19606; for inhibition at 100 µM: Acinetobacter baumannii, ATCC19606, read-out: % Biofilm Inhibition at 100 μM. As to the method:
Biofilm Inhibition Protocol for A. baumannii (ATCC 19606): In a 96-well plate, ten two-fold serial dilutions of each compound tested were made from the highest concentration tested (100 μM) in a final volume of 100 μL in Mueller-Hinton broth (one column served as a blank). Each well was inoculated with ˜7×10^6 colony forming units per milliliter (corresponding to an OD600 of 0.01 prepared directly from an overnight culture). A lid was placed on the 96-well plate which was wrapped in suran wrap, placed in a humidifying chamber and incubated under static conditions at 37° C. for 24 hours. Following incubation, the media and planktonic bacteria were then removed from 96-well plates and the wells were then washed with water. The bacterial biofilms within the microtiter wells were stained with 200 μL of an aqueous 0.1% crystal violet solution that was allowed to stand for 10-20 minutes. The crystal violet stain was then removed, the wells were rinsed with water and dried. The crystal violet stain that remained on the inside of the wells (i.e., stained bacterial biofilm) on the inside of the wells was solubilized by the addition of 200 μL ethanol and absorbance was read at OD540 using a spectrophotometer. NOTE: The concentration range tested for each compound was 0.2-100 μM. Single data points for all compounds and DMSO controls were tested in two replicate rows in 96-well plates and corresponding absorbance readings were averaged for the quantification of planktonic growth and biofilm formation. Reported percent biofilm inhibition was determined by the comparison of compound treated wells (the average of the two replicate wells) versus vehicle control wells without compound following background subtraction (i.e., an empty, untreated well) and reported from 2 to 4 independent overnight cultures. DMSO was serially diluted at the same concentration as test compounds with a top concentration of 1% v/v.
as §2

Setting [7] is: ATCC12228, Table 1, ATCC 12228, read-out: Staphylococcus epidermidis MIC.
The mark [8] stands for this setting: Table 1, PAO1, read-out: Pseudomonas aeruginosa MIC.
Setting [9] is: ATCC25923, Table 1, ATCC 25923, range tested 0.10 to 100 μM, read-out: Staphylococcus aureus MIC.
Where [10] appears, read: ATCC25923, Table 1, ATCC 25923, read-out: Staphylococcus aureus MIC.
Where [11] appears, read: ATCC25923, Table 2, S. aureus ATCC 25923, Luria Broth, read-out: MIC.

The structures appear in SMILES notation. Values joined by “and” are separate entries in the source; they are usually repeats but may differ in a detail not shown here. Identical values can stand only once. Like-named read-outs stand apart in the source and are kept apart here.

For the molecule `Oc1cccc2nc3ccccc3nc12` [Compound 2, 1-Hydroxyphenazine, reference compound], the MIC was > 100 µM and > 19.7 µg/mL in test [1] (ATCC12228, read-out: Staphylococcus epidermidis MIC); over 100 µM in test [2] (PAO1, read-out: Pseudomonas aeruginosa MIC); > 100 µM and > 19.7 µg/mL in test [3] (ATCC25923, read-out: Staphylococcus aureus MIC).

Regarding `O=C(O)c1cccc2nc3ccccc3nc12` [Compound 3, Phenazine-1-carboxylic acid, reference compound], the MIC in test [1] (setting [7]) is > 100 µM and > 22.5 µg/mL; in test [2] (setting [8]), over 100 µM; in test [3] (setting [9]) it was over 100 µM; in test [3] (setting [10]) it was over 22.5 µg/mL.

For `Nc1cccc2nc3cc(Br)ccc3nc12` [Compound 14, 7-Bromophenazin-1-amine], the MIC in test [2] (setting [8]) was over 100 µM; in test [3] (setting [9]) it was over 100 µM; in test [3] (setting [10]), over 27.4 µg/mL.

In the case of `NC(=O)c1cccc2nc3cc(Br)ccc3nc12` [Compound 15, 7-Bromophenazine-1-carboxamide], the MIC is over 100 µM in test [2] (setting [8]), over 100 µM in test [3] (setting [9]) and over 30.2 µg/mL in test [3] (setting [10]).

In the case of `Nc1c(Br)cc(Br)c2nc3cc(Br)ccc3nc12` [Compound 16, 2,4,7-Tribromophenazin-1-amine], the MIC in test [2] (setting [8]) was over 100 µM; in test [3] (setting [9]), over 100 µM; in test [3] (setting [10]), over 43.2 µg/mL.

For the molecule `Nc1c(Br)cc(Br)c2nc3ccccc3nc12` [Compound 17, 2,4-Dibromophenazin-1-amine], the MIC in test [2] (setting [8]) is over 100 µM; in test [3] (setting [9]), over 100 µM; in test [3] (setting [10]) it was over 35.4 µg/mL.

With `COc1ccc(Br)c2nc3ccccc3nc12` [Compound 19, 1-Bromo-4-methoxyphenazine], the MIC in test [2] (setting [8]) is over 100 µM; in test [3] (setting [9]), over 100 µM; in test [3] (setting [10]), over 28.9 µg/mL.

As for `Oc1ccc(Br)c2nc3ccccc3nc12` [Compound 20, 4-Bromophenazin-1-ol], the results for the MIC in test [2] (setting [8]), in test [3] (setting [9]) and in test [3] (setting [10]) were over 100 µM, over 100 µM and over 27.5 µg/mL, respectively.

`CC(C)C(=O)Oc1c(Br)cc(Br)c2nc3ccccc3nc12` [Compound 22, 2,4-Dibromophenazin-1-yl isobutyrate]: the Phenotype entry in test [4] is reported as “antibacterial”. Further, the IC50 in test [4] was 990 nM. Also, in test [4], the “MIC/IC50 Biofilm” value stood at 1.6. In addition, in test [5] (100 μM), the inhibition of growth at 100 µM is -13 ± 5%. For the same molecule, the MIC in test [1] (setting [7]) is 1.56 µM and 0.66 µg/mL; in test [3] (setting [9]) it was 1.56 µM; in test [3] (setting [10]) it was 0.66 µg/mL; in test [3] (setting [11]), 1.56 µM. The inhibition at 100 µM in test [6] is 26 ± 12%.

As to `O=C(Oc1c(Br)cc(Br)c2nc3ccccc3nc12)c1cccc(Br)c1` [Compound 25, 2,4-Dibromophenazin-1-yl 3-bromobenzoate], the Phenotype result in test [4] is given as “antibacterial”. In addition, the IC50 in test [4] was 930 nM. In addition, in test [4], the “MIC/IC50 Biofilm” value is given as 3.4. Moreover, the “increase in planktonic growth” value in test [5] (100 μM, OD600) is about 15%. Further, the “planktonic growth inhibition at 200 μM” value in test [5] (200 μM) is given as “did not inhibit planktonic growth”. Moreover, the inhibition of growth at 100 µM in test [5] (100 μM) is -18 ± 4%. The MIC was 3.13 µM and 1.68 µg/mL in test [1] (setting [7]); 3.13 µM in test [3] (setting [9]); 1.68 µg/mL in test [3] (setting [10]); 3.13 µM in test [3] (setting [11]). In test [6], the inhibition at 100 µM came out at 49 ± 6%.

For the molecule `O=C(Oc1c(Br)cc(Br)c2nc3ccccc3nc12)N(c1ccccc1)c1ccccc1` [Compound 26a], in test [4], the Phenotype result is “inactive” and the IC50 is over 100000 nM. In test [5] (100 μM), the inhibition of growth at 100 µM was -22 ± 8%. The MIC in test [3] (setting [11]) was over 100 µM. Further, in test [6], the inhibition at 100 µM was determined as 40 ± 2%.

On to `CS(=O)(=O)Oc1c(Br)cc(Br)c2nc3ccccc3nc12` [Compound 29a], for which the IC50 in test [4] was over 100000 nM. In addition, in test [5] (100 μM), the inhibition of growth at 100 µM stood at 3 ± 3%. For the same molecule, in test [3] (setting [11]), the MIC was over 100 µM. In test [6], the Phenotype result was “inactive” and the inhibition at 100 µM was 1 ± 2%.

`NC[C@H]1O[C@H](O[C@H]2[C@H](O)[C@@H](O[C@H]3O[C@H](CO)[C@@H](O)[C@H](N)[C@H]3O)[C@H](N)C[C@@H]2N)[C@H](O)[C@@H](O)[C@@H]1O` [Kanamycin, reference compound]: the MIC is 0.78 µM to 1.56 µM and 0.38 µg/mL to 0.76 µg/mL in test [1] (setting [7]); 1.56 to 6.25 µM in test [3] (setting [9]); 0.76 to 3.03 µg/mL in test [3] (setting [10]).

As a reminder, the MIC is the least concentration at which growth counts as inhibited. For orientation: IC50 means the point on the concentration scale where inhibition reaches its midpoint. What is called inhibition is how much of the control response was suppressed.

These data come from patent US9856225B2, “Substituted phenazines as antimicrobial agents” (University of Florida Research Foundation, Incorporated, priority 2013, dated 2018).
